This note sets out measurements from patent US10300023B1, “Stabilized assembled nanostructures for delivery of encapsulated agents” (The Brigham and Women's Hospital, Inc., priority 2015, dated 2019).

The test system of test [1] is LNCaP androgen-sensitive human prostate adenocarcinoma cells. Put plainly: In vitro cytotoxicity (% metabolic activity) in LNCaP cells. Conditions: n = 3. The class given is cell-based. The procedure: (§1) Nanofiber cytotoxicity was studied in vitro in prostate cancer cells—PC3 and LNCaP.
(§2) FIG. 8A is a line graph showing the % metabolic activity of PC3 (PC-3) human prostate cancer cells incubated with a range of concentrations (μM) of a vitamin C solution for 48 hours (“Vit C 48 h”, black square) or of stabilized vitamin C-derived particles for 24 hours or 48 hours (“Vit C particles 24 h” (grey square) and “Vit C particles 48 h” (triangle), respectively). FIG. 8B is a line graph showing the % metabolic activity of LNCaP androgen-sensitive human prostate adenocarcinoma cells incubated with Vit C for 48 hours (black squares), Vit C particles for 24 hours (grey squares), and Vit C particles for 48 hours (triangles).
(§3) FIGS. 9A and 9B are line graphs showing the % metabolic activity of PC3 cells (FIG. 9A) and the % metabolic activity of LNCaP cells (FIG. 9B) when incubated with a range of concentrations (μM) of stabilized vitamin C-derived particles (“Vit C particles”, grey squares), of free docetaxel (“free DTX”, diamonds), or of stabilized vitamin C-derived particles encapsulating docetaxel (“DTX loaded Vit C particles”, triangles).

Test [2] concerns PC3 (PC-3) human prostate cancer cells. Put plainly: In vitro cytotoxicity (% metabolic activity) in PC3 cells. The class given is cell-based. Particulars: n = 3. The procedure: as §1, §2, §3

For the compound `CC(=O)O[C@@]12CO[C@@H]1C[C@H](O)[C@@]1(C)C(=O)[C@H](O)C3=C(C)[C@@H](OC(=O)[C@H](O)[C@@H](NC(=O)OC(C)(C)C)c4ccccc4)C[C@@](O)([C@@H](OC(=O)c4ccccc4)[C@H]21)C3(C)C` [Free DTX, docetaxel], the results for the half-maximal inhibitory concentration (IC50) in test [1] and in test [2] were 3600 nM and 620 nM, respectively.
